The test system of data set [1] is Cabbage Looper (Trichoplusia ni) ("CL"). Nature of the data set: Bioassay on Cabbage Looper (CL), 128-well diet tray assay, percent mortality. Type of data set: in vivo. Conditions: for CL rating (percent mortality class): Cabbage Looper, 128-well diet tray assay; for pest or weed control at 50 µg/cm2: Trichoplusia ni, read-out: CL. The gist of the method: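 Larvae held in covered diet trays at 25 °C, 14:10 light-dark, for five to seven days. Percent mortality scored per well and averaged over eight wells.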

Data set [2] concerns Beet Armyworm (Spodoptera exigua) ("BAW"). Nature of the data set: Bioassay on Beet Armyworm (BAW), 128-well diet tray assay, percent mortality. Type of data set: in vivo. Conditions: for BAW rating (percent mortality class): Beet Armyworm, 128-well diet tray assay; for pest or weed control at 50 µg/cm2: Spodoptera exigua, read-out: BAW. The method, boiled down: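 Larvae in covered diet trays held at 25 °C, 14:10 light-dark, for five to seven days. Percent mortality scored per well and averaged over eight wells per treatment.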

In data set [3] the test system is Yellow Fever Mosquito "YFM" (Aedes aegypti). The following applies: for YFM rating (mortality class): Yellow Fever Mosquito larvae, 96-well plates; for YFM: rating of mortality, Yellow Fever Mosquito.

Where two headings read alike, the source gives them in different places.

`Cc1ccc(C(C)C)c(N2C(=O)CS/C2=N\C(=O)NCCc2ccc(-c3ncn(-c4ccc(OC(F)(F)C(F)(F)F)cc4)n3)cc2)c1` [F9, (Z)-1-(3-(2-isopropyl-5-methylphenyl)-4-oxothiazolidin-2-ylidene)-3-(4-(1-(4-(perfluoroethoxy)phenyl)-1H-1,2,4-triazol-3-yl)phenethyl)urea]: the “CL rating (percent mortality class)” value in data set [1] is “A (50-100)”. In addition, the “BAW rating (percent mortality class)” value in data set [2] is on record as “A (50-100)”. In data set [3], the “YFM rating (mortality class)” value is “A (80-100)”.

For `CC(C)c1ccccc1NC(=S)NC(=O)NCc1ccc(-c2ncn(-c3ccc(OC(F)(F)F)cc3)n2)cc1` [F14, N-[2-(propan-2-yl)phenyl]-N′-(4-{1-[4-(trifluoromethoxy)phenyl]-1H-1,2,4-triazol-3-yl}benzyl)dicarbonimidothioic diamide], in data set [1], the “CL rating (percent mortality class)” value is “A (50-100)”. In addition, the “BAW rating (percent mortality class)” value in data set [2] is “A (50-100)”. The “YFM rating (mortality class)” value in data set [3] is recorded as “A (80-100)”.

Regarding `Cc1ccc(C(C)C)c(N2C(=O)CS/C2=N\C(=O)NCCCc2ccc(-c3ncn(-c4ccc(OC(F)(F)F)cc4)n3)cc2)c1` [F20, (Z)-1-(3-(2-isopropyl-5-methylphenyl)-4-oxothiazolidin-2-ylidene)-3-(3-(4-(1-(4-(trifluoromethoxy)phenyl)-1H-1,2,4-triazol-3-yl)phenyl)propyl)urea], the “CL rating (percent mortality class)” value in data set [1] is given as “A (50-100)”. Moreover, the “BAW rating (percent mortality class)” value in data set [2] is given as “A (50-100)”. The “YFM rating (mortality class)” value in data set [3] is recorded as “A (80-100)”.

Turning to `Cc1ccc(C(C)C)c(NC(=S)NC(=O)NCCCc2ccc(-c3ncn(-c4ccc(OC(F)(F)F)cc4)n3)cc2)c1` [F21, 1-[(2-isopropyl-5-methyl-phenyl)carbamothioyl]-3-[3-[4-[1-[4-(trifluoromethoxy)phenyl]-1,2,4-triazol-3-yl]phenyl]propyl]urea], the “CL rating (percent mortality class)” value in data set [1] is given as “A (50-100)”. In addition, the “BAW rating (percent mortality class)” value in data set [2] is “A (50-100)”. The “YFM rating (mortality class)” value in data set [3] is “A (80-100)”.

Turning to `CC(C)c1ccccc1N1C(=O)CS/C1=N\C(=O)NC1CC1c1ccc(-c2ncn(-c3ccc(OC(F)(F)F)cc3)n2)cc1` (centres unmarked) [F29, (Z)-1-(3-(2-isopropylphenyl)-4-oxothiazolidin-2-ylidene)-3-(2-(4-(1-(4-(trifluoromethoxy)phenyl)-1H-1,2,4-triazol-3-yl)phenyl)cyclopropyl)urea], the “CL rating (percent mortality class)” value in data set [1] was “A (50-100)”. For the same compound, in data set [2], the “BAW rating (percent mortality class)” value is “A (50-100)”. Further, in data set [3], the “YFM rating (mortality class)” value is “A (80-100)”.

With `Cc1ccc(N2C(=O)CS/C2=N\C(=O)NCCc2ccc(-c3ncn(-c4ccc(OC(F)(F)F)cc4)n3)cc2)c(C(C)C)c1` [P26, (Z)-1-(3-(2-isopropyl-4-methylphenyl)-4-oxothiazolidin-2-ylidene)-3-(4-(1-(4-(trifluoromethoxy)phenyl)-1H-1,2,4-triazol-3-yl)phenethyl)urea], the pest or weed control at 50 µg/cm2 in data set [1] and in data set [2] was 50 to 100% in each case. The YFM result in data set [3] (Table ABC (P)) is “A (80-100)”.

`Cc1cccc(N2C(=O)CS/C2=N\C(=O)NCCc2ccc(-c3ncn(-c4ccc(OC(F)(F)F)cc4)n3)cc2)c1C(C)C` [P27, (Z)-1-(3-(2-isopropyl-3-methylphenyl)-4-oxothiazolidin-2-ylidene)-3-(4-(1-(4-(trifluoromethoxy)phenyl)-1H-1,2,4-triazol-3-yl)phenethyl)urea]: the pest or weed control at 50 µg/cm2 in data set [1] and in data set [2] was 50 to 100% in each case. Further, the YFM result in data set [3] (Table ABC (P)) is “A (80-100)”.

On to `CC(C)c1cc(F)ccc1N1C(=O)CS/C1=N\C(=O)NCCc1ccc(-c2ncn(-c3ccc(OC(F)(F)F)cc3)n2)cc1` [P28, (Z)-1-(3-(4-fluoro-2-isopropylphenyl)-4-oxothiazolidin-2-ylidene)-3-(4-(1-(4-(trifluoromethoxy)phenyl)-1H-1,2,4-triazol-3-yl)phenethyl)urea], for which the pest or weed control at 50 µg/cm2 in data set [1] and in data set [2] was 50 to 100% each time. Moreover, the YFM result in data set [3] (Table ABC (P)) is given as “A (80-100)”.

For `CCCc1ccc(C)cc1N1C(=O)CS/C1=N\C(=O)NCCc1ccc(-c2ncn(-c3ccc(OC(F)(F)F)cc3)n2)cc1` [P29, (Z)-1-(3-(5-methyl-2-propylphenyl)-4-oxothiazolidin-2-ylidene)-3-(4-(1-(4-(trifluoromethoxy)phenyl)-1H-1,2,4-triazol-3-yl)phenethyl)urea], the pest or weed control at 50 µg/cm2 in data set [1] and in data set [2] was 50 to 100% throughout. For the same compound, the YFM result in data set [3] (Table ABC (P)) is “A (80-100)”.

Regarding `CC(C)(C)c1ccccc1N1C(=O)CS/C1=N\C(=O)NCCc1ccc(-c2ncn(-c3ccc(OC(F)(F)F)cc3)n2)cc1` [P30, (Z)-1-(3-(2-(tert-butyl)phenyl)-4-oxothiazolidin-2-ylidene)-3-(4-(1-(4-(trifluoromethoxy)phenyl)-1H-1,2,4-triazol-3-yl)phenethyl)urea], the pest or weed control at 50 µg/cm2 in data set [1] and in data set [2] was 50 to 100% each time. Also, in data set [3] (Table ABC (P)), the YFM result is given as “A (80-100)”.

For `CCc1cc(C)ccc1N1C(=O)CS/C1=N\C(=O)NCCc1ccc(-c2ncn(-c3ccc(OC(F)(F)F)cc3)n2)cc1` [P31, (Z)-1-(3-(2-ethyl-4-methylphenyl)-4-oxothiazolidin-2-ylidene)-3-(4-(1-(4-(trifluoromethoxy)phenyl)-1H-1,2,4-triazol-3-yl)phenethyl)urea], the pest or weed control at 50 µg/cm2 in data set [1] and in data set [2] was 50 to 100% throughout. In data set [3] (Table ABC (P)), the YFM entry was “A (80-100)”.

Take `CC(Cc1ccc(-c2ncn(-c3ccc(OC(F)(F)F)cc3)n2)cc1)NC(=O)/N=C1\SCC(=O)N1c1ccc(F)cc1C(C)C` (centres unmarked) [P33, (Z)-1-(3-(4-fluoro-2-isopropylphenyl)-4-oxothiazolidin-2-ylidene)-3-(1-(4-(1-(4-(trifluoromethoxy)phenyl)-1H-1,2,4-triazol-3-yl)phenyl)propan-2-yl)urea]: the pest or weed control at 50 µg/cm2 in data set [1] and in data set [2] was 50 to 100% each time. In data set [3] (Table ABC (P)), the YFM result was “A (80-100)”.

For the compound `CCc1cccc(C)c1N1C(=O)CS/C1=N\C(=O)NC(C)Cc1ccc(-c2ncn(-c3ccc(OC(F)(F)F)cc3)n2)cc1` (centres unmarked) [P42, (Z)-1-(3-(2-ethyl-6-methylphenyl)-4-oxothiazolidin-2-ylidene)-3-(1-(4-(1-(4-(trifluoromethoxy)phenyl)-1H-1,2,4-triazol-3-yl)phenyl)propan-2-yl)urea], the pest or weed control at 50 µg/cm2 in data set [1] and in data set [2] was 50 to 100% in each case. The YFM entry in data set [3] (Table ABC (P)) is “A (80-100)”.

On to `COc1ccc(N2C(=O)CS/C2=N\C(=O)NCCc2ccc(-c3ncn(-c4ccc(OC(F)(F)F)cc4)n3)cc2)c(C)c1` [P44, (Z)-1-(3-(4-methoxy-2-methylphenyl)-4-oxothiazolidin-2-ylidene)-3-(4-(1-(4-(trifluoromethoxy)phenyl)-1H-1,2,4-triazol-3-yl)phenethyl)urea], for which the pest or weed control at 50 µg/cm2 in data set [1] and in data set [2] was 50 to 100% in each case. Also, the YFM entry in data set [3] (Table ABC (P)) is listed as “A (80-100)”.

As for `COc1ccc(N2C(=O)CS/C2=N\C(=O)NC(C)Cc2ccc(-c3ncn(-c4ccc(OC(F)(F)F)cc4)n3)cc2)c(C)c1` (centres unmarked) [P45, (Z)-1-(3-(4-methoxy-2-methylphenyl)-4-oxothiazolidin-2-ylidene)-3-(1-(4-(1-(4-(trifluoromethoxy)phenyl)-1H-1,2,4-triazol-3-yl)phenyl)propan-2-yl)urea], the pest or weed control at 50 µg/cm2 in data set [1] and in data set [2] was 50 to 100% each time. For the same compound, the YFM entry in data set [3] (Table ABC (P)) is “A (80-100)”.

As for `COc1cc(C)c(N2C(=O)CS/C2=N\C(=O)NCCc2ccc(-c3ncn(-c4ccc(OC(F)(F)F)cc4)n3)cc2)c(C)c1` [P47, (Z)-1-(3-(4-methoxy-2,6-dimethylphenyl)-4-oxothiazolidin-2-ylidene)-3-(4-(1-(4-(trifluoromethoxy)phenyl)-1H-1,2,4-triazol-3-yl)phenethyl)urea], the pest or weed control at 50 µg/cm2 in data set [1] and in data set [2] was 50 to 100% each time. In data set [3] (Table ABC (P)), the YFM entry was “A (80-100)”.

Take `CCc1ccc(C)cc1N1C(=O)CS/C1=N\C(=O)NCCc1ccc(-c2ncn(-c3ccc(OC(F)(F)F)cc3)n2)cc1` [P49, (Z)-1-(3-(2-ethyl-5-methylphenyl)-4-oxothiazolidin-2-ylidene)-3-(4-(1-(4-(trifluoromethoxy)phenyl)-1H-1,2,4-triazol-3-yl)phenethyl)urea]: the pest or weed control at 50 µg/cm2 in data set [1] and in data set [2] was 50 to 100% throughout. For the same compound, in data set [3] (Table ABC (P)), the YFM result is listed as “A (80-100)”.

Turning to `CCC(CNC(=O)/N=C1\SCC(=O)N1c1ccccc1C(C)C)c1ccc(-c2ncn(-c3ccc(OC(F)(F)F)cc3)n2)cc1` (centres unmarked) [P209, (Z)-1-(3-(2-isopropylphenyl)-4-oxothiazolidin-2-ylidene)-3-(2-(4-(1-(4-(trifluoromethoxy)phenyl)-1H-1,2,4-triazol-3-yl)phenyl)butyl)urea], the pest or weed control at 50 µg/cm2 in data set [2] is 50 to 100%. Besides, in data set [3] (Table ABC (P)), the YFM result is “A (80-100)”.

Take `CCC(CNC(=O)/N=C1\SCC(=O)N1c1cc(OC)ccc1C(C)C)c1ccc(-c2ncn(-c3ccc(OC(F)(F)F)cc3)n2)cc1` (centres unmarked) [P683, (Z)-1-(3-(2-isopropyl-5-methoxyphenyl)-4-oxothiazolidin-2-ylidene)-3-(2-(4-(1-(4-(trifluoromethoxy)phenyl)-1H-1,2,4-triazol-3-yl)phenyl)butyl)urea]: the pest or weed control at 50 µg/cm2 in data set [2] is 50 to 100%. Besides, the YFM result in data set [3] (Table ABC (P)) is listed as “A (80-100)”.

With `CCc1cccc(C)c1NC(=S)NC(=O)NCCCCc1ccc(-c2ncn(-c3ccc(OC(F)(F)F)cc3)n2)cc1` [PC153, 1-[(2-ethyl-6-methyl-phenyl)carbamothioyl]-3-[4-[4-[1-[4-(trifluoromethoxy)phenyl]-1,2,4-triazol-3-yl]phenyl]butyl]urea], in data set [3] (Table ABC (PC)), the YFM entry is recorded as “B (More than 0-Less than 80)”.
